The target in one test is T1, SGLT1 (Homo sapiens, UniProt P13866).
T1 construct: expressed in transfected cells
T1 sequence (P13866 1-664): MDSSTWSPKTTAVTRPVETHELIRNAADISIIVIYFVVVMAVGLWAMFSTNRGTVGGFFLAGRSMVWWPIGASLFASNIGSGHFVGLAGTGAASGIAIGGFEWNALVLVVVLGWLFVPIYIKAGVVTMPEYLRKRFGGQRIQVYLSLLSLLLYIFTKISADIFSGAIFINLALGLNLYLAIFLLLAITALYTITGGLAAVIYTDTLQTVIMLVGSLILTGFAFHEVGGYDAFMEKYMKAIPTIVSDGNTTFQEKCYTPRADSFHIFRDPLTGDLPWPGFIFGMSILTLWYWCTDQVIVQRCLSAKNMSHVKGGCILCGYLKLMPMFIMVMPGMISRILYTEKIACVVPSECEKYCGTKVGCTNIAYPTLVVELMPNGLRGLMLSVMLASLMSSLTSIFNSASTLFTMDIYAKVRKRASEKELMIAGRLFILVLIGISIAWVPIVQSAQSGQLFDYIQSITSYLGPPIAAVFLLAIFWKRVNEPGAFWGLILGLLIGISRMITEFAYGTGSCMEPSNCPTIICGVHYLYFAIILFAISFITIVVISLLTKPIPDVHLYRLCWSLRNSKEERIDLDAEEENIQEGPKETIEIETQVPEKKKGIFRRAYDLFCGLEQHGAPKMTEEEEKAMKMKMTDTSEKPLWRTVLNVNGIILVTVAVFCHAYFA
Kind of test: SGLT1 activity measurement: 14C-AMG uptake in BHK cells transfected with SGLT1. It is filed as cell-based. The note with it: AMG 50 μM, 37° C., 90 min. The essentials: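 BHK21 cells stably transfected with human SLC5A1 were incubated with 14C-AMG (added solution at 50 μM) ± compound for 90 min at 37 °C. The buffer was 140 mM NaCl, HEPES/Tris, pH 7.4. Lysed-cell radioactivity was counted by scintillation, and non-specific uptake was measured in sodium-free sucrose buffer.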

Another test has as its target T2, SGLT2 (Homo sapiens, UniProt P31639).
T2 construct: expressed in transfected cells
T2 sequence (P31639 1-672): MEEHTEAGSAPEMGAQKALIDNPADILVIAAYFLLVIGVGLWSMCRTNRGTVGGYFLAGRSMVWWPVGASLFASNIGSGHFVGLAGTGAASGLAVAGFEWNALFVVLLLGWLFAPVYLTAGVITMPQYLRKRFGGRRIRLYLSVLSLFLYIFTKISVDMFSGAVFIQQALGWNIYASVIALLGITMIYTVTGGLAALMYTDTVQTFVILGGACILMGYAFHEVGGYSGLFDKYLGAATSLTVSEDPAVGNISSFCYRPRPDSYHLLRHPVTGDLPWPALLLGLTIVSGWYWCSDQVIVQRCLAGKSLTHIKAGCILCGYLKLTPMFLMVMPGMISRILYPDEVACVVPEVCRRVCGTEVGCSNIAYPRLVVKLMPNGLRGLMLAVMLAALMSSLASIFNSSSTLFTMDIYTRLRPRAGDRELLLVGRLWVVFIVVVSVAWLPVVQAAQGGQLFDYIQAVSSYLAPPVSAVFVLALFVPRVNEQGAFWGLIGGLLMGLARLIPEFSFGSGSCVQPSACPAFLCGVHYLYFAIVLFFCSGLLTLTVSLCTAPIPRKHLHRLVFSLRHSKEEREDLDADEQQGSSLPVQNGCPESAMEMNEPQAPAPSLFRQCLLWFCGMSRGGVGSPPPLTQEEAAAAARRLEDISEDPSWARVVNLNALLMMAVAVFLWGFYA
Kind of test: SGLT2 activity measurement: 14C-AMG uptake in BHK cells transfected with SGLT2. The conditions noted are these: AMG 2 mM, 37° C., 90 min. It is filed as cell-based. The essentials:
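BHK21 cells stably expressing human SGLT2 took up 14C-AMG (added as 2 mM solution) ± compound for 90 min at 37 °C in Na+-containing HEPES/Tris buffer, pH 7.4. Uptake was measured by scintillation counting after lysis. Non-specific uptake was defined in sodium-free sucrose buffer.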

Turning to `COc1cc(C)c(-c2nc3ccc(F)cn3c2Nc2c(Br)cccc2Br)c(OCC(N)=O)c1` [Compound A233, 2-[2-(Aminocarbonylmethoxy)-4-methoxy-6-methylphenyl]-3-(2,6-dibromophenylamino)-6-fluoroimidazo[1,2-a]pyridine], the figures for the IC50 against SGLT1 and on SGLT2 were > 10000 nM and 10 to 1000 nM, respectively.

Regarding `COc1cc(C)c(-c2nc3ccc(F)cn3c2Nc2c(C)cc(F)cc2C)c(OCC(N)=O)c1` [Compound A234, 2-[2-(Aminocarbonylmethoxy)-4-methoxy-6-methylphenyl]-3-(2,6-dimethyl-4-fluorophenyl-amino)-6-fluoroimidazo[1,2-a]pyridine], the IC50 (commonly the concentration that gives 50% inhibition) lay within 1000 to 10000 nM against SGLT1 and 10 to 1000 nM against SGLT2.

For the molecule `CCc1cc(OC)cc(OCC(N)=O)c1-c1nc2ccc(F)cn2c1Nc1c(C)cc(F)cc1C` [Compound A235, 2-[2-(Aminocarbonylmethoxy)-4-methoxy-6-ethylphenyl]-3-(2,6-dimethyl-4-fluorophenyl-amino)-6-fluoroimidazo[1,2-a]pyridine], the figures for the IC50 on SGLT1 and against SGLT2 were 1000 to 10000 nM and 10 to 1000 nM, respectively.

As to `COc1cc(C)c(-c2nc3ccc(F)cn3c2Nc2c(C)cccc2C(F)(F)F)c(OCC(N)=O)c1` [Compound A236, 2-[2-(Aminocarbonylmethoxy)-4-methoxy-6-methylphenyl]-3-(2-methyl-6-trifluoromethyl-phenylamino)-6-fluoroimidazo[1,2-a]pyridine], the IC50 on SGLT1 was in the range of 1000 to 10000 nM; at SGLT2, 10 to 1000 nM.

As to `COc1cc(C)c(-c2nc3c(F)cc(F)cn3c2Nc2c(C)cccc2C)c(OCC(N)=O)c1` [Compound A237, 2-[2-(Aminocarbonylmethoxy)-4-methoxy-6-methylphenyl]-3-(2,6-dimethylphenylamino)-6,8-difluoroimidazo[1,2-a]pyridine], the IC50 was in the range of 1000 to 10000 nM against SGLT1 and 10 to 1000 nM against SGLT2.

With `COc1cc(C)c(-c2nc3ccc(F)cn3c2Nc2c(Br)cc(F)cc2Br)c(OCC(N)=O)c1` [Compound A238, 2-[2-(Aminocarbonylmethoxy)-4-methoxy-6-methylphenyl]-3-(2,6-dibromo-4-fluorophenyl-amino)-6-fluoroimidazo[1,2-a]pyridine], the IC50 against SGLT1 lay within 1000 to 10000 nM; on SGLT2, 10 to 1000 nM.

Turning to `COc1cc(C)c(-c2nc3ccc(F)cn3c2Nc2c(Br)cc(C)cc2Br)c(OCC(N)=O)c1` [Compound A239, 2-[2-(Aminocarbonylmethoxy)-4-methoxy-6-methylphenyl]-3-(2,6-dibromo-4-methylphenyl-amino)-6-fluoroimidazo[1,2-a]pyridine], the IC50 against SGLT1 and against SGLT2 was 10 to 1000 nM in each case.

`CCc1cccc(OCC(N)=O)c1-c1nc2ccc(F)cn2c1Nc1c(C)cccc1C` [Compound A240, 2-[2-(Aminocarbonylmethoxy)-6-ethylphenyl]-3-(2,6-dimethylphenylamino)-6-fluoroimidazo-[1,2-a]pyridine]: the IC50 against SGLT1 lay within 1000 to 10000 nM; at SGLT2, 10 to 1000 nM.

In the case of `CCc1cccc(OCC(N)=O)c1-c1nc2ccc(F)cn2c1Nc1c(Cl)cccc1Cl` [Compound A241, 2-[2-(Aminocarbonylmethoxy)-6-ethylphenyl]-3-(2,6-dichlorophenylamino)-6-fluoroimidazo-[1,2-a]pyridine], the IC50 on SGLT1 and at SGLT2 was 10 to 1000 nM each time.

Regarding `COc1cc(C)c(-c2nc3ccc(F)cn3c2Nc2c(F)cccc2C(F)(F)F)c(OCC(N)=O)c1` [Compound A242, 2-[2-(Aminocarbonylmethoxy)-4-methoxy-6-methylphenyl]-3-(2-fluoro-6-trifluoromethyl-phenylamino)-6-fluoroimidazo[1,2-a]pyridine], the values for the concentration for half-maximal inhibition (IC50) against SGLT1 and at SGLT2 were 1000 to 10000 nM and 10 to 1000 nM, respectively.

On to `COc1cc(C)c(-c2nc3ccc(F)cn3c2Nc2c(F)cccc2Br)c(OCC(N)=O)c1` [Compound A243, 2-[2-(Aminocarbonylmethoxy)-4-methoxy-6-methylphenyl]-3-(2-fluoro-6-bromophenylamino)-6-fluoroimidazo[1,2-a]pyridine], for which the figures for the half-inhibitory concentration (IC50) against SGLT1 and on SGLT2 were 1000 to 10000 nM and 10 to 1000 nM, respectively.

`COc1cc(C)c(-c2nc3ccc(F)cn3c2Nc2c(F)cc(F)cc2F)c(OCC(N)=O)c1` [Compound A244, 2-[2-(Aminocarbonylmethoxy)-4-methoxy-6-methylphenyl]-3-(2,4,6-trifluorophenylamino)-6-fluoroimidazo[1,2-a]pyridine]: the IC50 lay in the range of 1000 to 10000 nM on SGLT1 and 10 to 1000 nM against SGLT2.

`CCc1cc(OC)cc(OCC(N)=O)c1-c1nc2ccc(F)cn2c1Nc1c(C)cc(C(=O)OC)cc1C` [Compound A245, 2-[2-(Aminocarbonylmethoxy)-4-methoxy-6-ethylphenyl]-3-(2,6-dimethyl-4-methoxycarbonyl-phenylamino)-6-fluoroimidazo[1,2-a]pyridine]: the IC50 against SGLT1 is > 10000 nM; on SGLT2, 1000 to 10000 nM.

For the molecule `COC(=O)c1cccc(C)c1Nc1c(-c2c(C)cc(OC)cc2OCC(N)=O)nc2ccc(F)cn12` [Compound A246, 2-[2-(Aminocarbonylmethoxy)-4-methoxy-6-methylphenyl]-3-(2-methyl-6-methoxycarbonyl-phenylamino)-6-fluoroimidazo[1,2-a]pyridine], the concentration for half-maximal inhibition (IC50) at SGLT1 is > 10000 nM; against SGLT2, 1000 to 10000 nM.

Consider `CCc1cc(OC)cc(OCC(N)=O)c1-c1nc2ccc(F)cn2c1Nc1c(C)cccc1C(F)(F)F` [Compound A247, 2-[2-(Aminocarbonylmethoxy)-4-methoxy-6-ethylphenyl]-3-(2-methyl-6-trifluoromethylphenyl-amino)-6-fluoroimidazo[1,2-a]pyridine], for which the IC50 at SGLT1 is > 10000 nM; against SGLT2, 10 to 1000 nM.

Turning to `COc1cc(C)c(-c2nc3ccc(F)cn3c2Nc2c(F)cccc2Cl)c(OCC(N)=O)c1` [Compound A248, 2-[2-(Aminocarbonylmethoxy)-4-methoxy-6-methylphenyl]-3-(2-fluoro-6-chlorophenylamino)-6-fluoroimidazo[1,2-a]pyridine], the IC50 was > 10000 nM against SGLT1 and 10 to 1000 nM against SGLT2.

In the case of `COc1cc(C)c(-c2nc3ccc(F)cn3c2Nc2c(C)cc(Br)c(C)c2Br)c(OCC(N)=O)c1` [Compound A249, 2-[2-(Aminocarbonylmethoxy)-4-methoxy-6-methylphenyl]-3-(2,5-dimethyl-4,6-dibromophenylamino)-6-fluoroimidazo[1,2-a]-pyridine], the IC50 against SGLT1 and against SGLT2 was 1000 to 10000 nM in each case.

Turning to `COc1cc(C)c(-c2nc3ccc(F)cn3c2Nc2c(C)cc(C)cc2[N+](=O)[O-])c(OCC(N)=O)c1` [Compound A250, 2-[2-(Aminocarbonylmethoxy)-4-methoxy-6-methylphenyl]-3-(2,4-dimethyl-6-nitrophenyl-amino)-6-fluoroimidazo[1,2-a]pyridine], the values for the IC50 on SGLT1 and on SGLT2 were > 10000 nM and 10 to 1000 nM, respectively.

Regarding `COc1cc(C)c(-c2nc3c(F)cc(F)cn3c2Nc2c(C)cc(F)cc2C)c(OCC(N)=O)c1` [Compound A251, 2-[2-(Aminocarbonylmethoxy)-4-methoxy-6-methylphenyl]-3-(2,6-dimethyl-4-fluorophenyl-amino)-6,8-difluoroimidazo[1,2-a]pyridine], the IC50 was in the range of 1000 to 10000 nM against SGLT1 and 10 to 1000 nM at SGLT2.

On to `COc1cc(C)c(-c2nc3ccc(F)cn3c2Nc2c(F)cc(Br)cc2F)c(OCC(N)=O)c1` [Compound A252, 2-[2-(Aminocarbonylmethoxy)-4-methoxy-6-methylphenyl]-3-(2,6-difluoro-4-bromophenyl-amino)-6-fluoroimidazo[1,2-a]pyridine], for which the IC50 on SGLT1 and at SGLT2 was 1000 to 10000 nM in each case.

The values above are taken from patent publication US8258151B2, “3-aminoimidazo [1,2-A] pyridine derivatives as SGLT inhibitors” (Merck Patent GmbH, priority 2006, dated 2012).
